Results published in patent US3930838A, “S-benzyl-N,N-disec-butylthiocarbamate and its use as a rice field herbicide and a rice growth stimulant” (priority 1970, dated 1976).

Columns and labels:
[1] = tested on: rice; experiment: Hothouse test on rice in flooded culture, 66 days (Example 9b); type: in vivo, rice cv. RIBE
Description: A test was arranged in a hothouse on a set of boxes having a 1,000 cm^2 internal surface. 18 Kg. of sieved rice field earth were put into each box. After leveling, the earth surfaces of each of a set of six boxes were uniformly sprayed with hydroacetone solutions containing, respectively, 0, 0.5, 0.75, 1, 1.25, and 1.5% of M3432. 20 Cc. of solution was sprayed into each box, corresponding to 0, 10, 15, 20, 25, and 30 kg./ha., respectively. Each box was flooded with a 10 cm. water layer measured from the earth surface. The sowing was carried out immediately afterwards with a pre-germinated (cv) RIBE rice seed, employing a quantity of 40 seeds per box.
A second test was carried out in a hothouse, employing the identical method and under the identical conditions as in Example 9a.

[2] = tested on: rice; experiment: Outdoor comparison of rice stimulating action of M3432 with lower homologues and isomers (Example 11); type: in vivo; conditions: 21 days after sowing
Procedure: In the province of Pavia, a test was carried out with outdoor treatments in a loam soil, on rice plots having a 12 m^2 surface each.
Formulations of 20% M3432 in emulsifiable oil were compared with 20% formulations in emulsifiable oil of S-benzyl-N,N-diisopropyl thiocarbamate; S-benzyl-N,N-diisobutylthiocarbamate; and S-benzyl-N,N-din.butylthiocarbamate employing quantities of 4, 6 and 20 kg./ha.
For each treatment, the results were gathered on 20 plants 21 days after the sowing.

[3] = tested on: Echinocloa spp.; experiment: Post emergence hothouse test No. 2 (Example 16); type: in vivo; conditions: 4, 6, and 8 kg./ha., 26 days; plants max. 10 cm. at treatment
Procedure: A set of boxes having a 1,000 cm^2 internal surface was prepared in a hothouse according to the method described in Example 9. The boxes were sowed with Echinocloa spp. (70 seeds per box). After saturation of the soil, and as soon as the infesting plants emerged from the soil, the boxes were flooded with a 7 cm. layer of water. When the plants reached a maximum height of 3-4 cm., the treatment was effected by spraying the flooding water surfaces with hydroacetone solutions according to the modalities employed in Example 9. 3 days after the treatment, the following results were observed:
A second test was carried out in the same manner as Test No. 1 except that the treatment took place when the infesting plants had reached a maximum of 10 cm. 26 days after such treatment, the following was observed: […]

[4] = tested on: rice; experiment: Stimulating action on rice, general statement; conditions: in vivo
[5] = tested on: Lolium italicum; experiment: Weeding activity in screening conditions (Example 12); type: in vivo; set-up: scale not given here; conditions: 25 days
Description: (§1) Two sets of small square tanks having 11 cm. sides, filled with field earth admixed with 30% of sand, were sowed at a depth of 0.5-1 cm. with the following grass species: Echinocloa crus galli, Setaria italica, Alopecurus myosiuroides, Lolium italicum, Digitaria sanguinalis, Avena fatua, Agrostis segetum, and Dactylis glomerata. After sowing, the earth surface of the tanks was uniformly sprayed with 2.4 cc./tank of hydroacetone solutions containing, respectively, 0, 0.05, 0.10, 0.20 and 0.30% of M3432 and of molinate, respectively, in order to obtain doses thereof corresponding to 0, 1, 2, 4, and 6 kg./ha., respectively.
(§2) Only one set of small tanks was covered with a 1 cm. layer of earth just after the treatment. All of the tanks were kept in an air-conditioned chamber identical with that described in Example 7, and were watered every day. 25 days after the treatment, the final results were examined, attributing to each treatment the following scale of values: […]

[6] = tested on: Avena fatua; experiment: as above; type: in vivo; set-up: scale not given here; conditions: 25 days
Description: as §1, §2

[7] = tested on: Digitaria sanguinalis; experiment: as above; type: in vivo; set-up: scale not given here; conditions: 25 days
Description: as §1, §2

[8] = tested on: Agrostis segetum; experiment: as above; type: in vivo; set-up: scale not given here; conditions: 25 days
Description: as §1, §2

[9] = tested on: Alopecurus myosiuroides; experiment: as above; type: in vivo; set-up: scale not given here; conditions: 25 days
Description: as §1, §2

[10] = tested on: grass (Echinocloa spp.); experiment: Residual activity, second sowing with grass 24 days after treatment (Example 14); type: in vivo; conditions: additional 24 days
Procedure: The same method described in Example 9 was followed, the only variation being in sowing Echinocloa spp. (40 slightly pregerminated seeds per box) instead of rice.
After the Echinocloa spp. plants were killed, a second sowing with grass was carried out in the same boxes, 24 days after the treatment, employing 20 slightly pre-germinated seeds per box.

[11] = Treated surface covered with 1 cm earth layer, 2 kg./ha.
[12] = Treated surface covered with 1 cm earth layer, 4 kg./ha.
[13] = Treated surface covered with 1 cm earth layer, 6 kg./ha.

## CCC(C)N(C(=O)SCc1ccccc1)C(C)CC (stereo not drawn) [M3432, S-benzyl-N,N-disec.butylthiocarbamate]
[1]; 10 kg./ha.
  Main root: 12.64 cm.
  Roots, weight on dry basis: 5.550 g. per 100 plant
  Secondary roots: 12.20 No.
  Shoot: 16.74 cm.
  Shoot, weight on dry basis: 8.000 g. per 100 plant
  Sprouted plants: 45.0%
[1]; 15 kg./ha.
  Main root: 13.54 cm.
  Roots, weight on dry basis: 6.800 g. per 100 plant
  Secondary roots: 13.30 No.
  Shoot: 18.16 cm.
  Shoot, weight on dry basis: 11.800 g. per 100 plant
  Sprouted plants: 45.0%
[1]; 20 kg./ha.
  Main root: 17.16 cm.
  Roots, weight on dry basis: 10.480 g. per 100 plant
  Secondary roots: 21.00 No.
  Shoot: 26.00 cm.
  Shoot, weight on dry basis: 18.050 g. per 100 plant
  Sprouted plants: 60.0%
[1]; 25 kg./ha.
  Main root: 10.26 cm.
  Roots, weight on dry basis: 4.250 g. per 100 plant
  Secondary roots: 10.05 No.
  Shoot: 15.00 cm.
  Shoot, weight on dry basis: 6.875 g. per 100 plant
  Sprouted plants: 40.0%
[1]; 30 kg./ha.
  Main root: 8.21 cm.
  Roots, weight on dry basis: 2.800 g. per 100 plant
  Secondary roots: 8.00 No.
  Shoot: 14.50 cm.
  Shoot, weight on dry basis: 5.050 g. per 100 plant
  Sprouted plants: 40.0%
[2]; 4 kg./ha.
  Main roots: 5.55 No.
  Secondary roots: 2.52 No.
  Shoot: 7.11 cm.
[2]; 6 kg./ha.
  Main roots: 5.73 No.
  Secondary roots: 2.63 No.
  Shoot: 7.34 cm.
[2]; 20 kg./ha.
  Main roots: 6.76 No.
  Secondary roots: 2.63 No.
  Shoot: 7.68 cm.
[3]
  Shoot: 0 cm.
  Stand: 0%
[4]
  Malformations of rice: no malformations are noticed
[5]; Surface, 1 kg./ha.
  Weeding activity: 4
[5]; Surface, 2 kg./ha.
  Weeding activity: 4
[5]; Surface, 4 kg./ha.
  Weeding activity: 4
[5]; Surface, 6 kg./ha.
  Weeding activity: 4
[5]; [11]
  Weeding activity: 4
[5]; [12]
  Weeding activity: 4
[5]; [13]
  Weeding activity: 4
[6]; Surface, 1 kg./ha.
  Weeding activity: 2/3
[6]; Surface, 2 kg./ha.
  Weeding activity: 3
[6]; Surface, 4 kg./ha.
  Weeding activity: 3
[6]; Surface, 6 kg./ha.
  Weeding activity: 3
[6]; [11]
  Weeding activity: 4
[6]; [12]
  Weeding activity: 4
[6]; [13]
  Weeding activity: 4
[7]; Surface, 1 kg./ha.
  Weeding activity: 3
[7]; Surface, 2 kg./ha.
  Weeding activity: 4
[7]; Surface, 4 kg./ha.
  Weeding activity: 4
[7]; Surface, 6 kg./ha.
  Weeding activity: 4
[7]; [11]
  Weeding activity: 4
[7]; [12]
  Weeding activity: 4
[7]; [13]
  Weeding activity: 4
[8]; Surface, 1 kg./ha.
  Weeding activity: 4
[8]; Surface, 2 kg./ha.
  Weeding activity: 4
[8]; Surface, 6 kg./ha.
  Weeding activity: 4
[8]; [11]
  Weeding activity: 4
[8]; [12]
  Weeding activity: 4
[8]; [13]
  Weeding activity: 4
[9]; Surface, 1 kg./ha.
  Weeding activity: 1/2
[9]; Surface, 2 kg./ha.
  Weeding activity: 2
[9]; Surface, 4 kg./ha.
  Weeding activity: 3
[9]; Surface, 6 kg./ha.
  Weeding activity: 4
[9]; [11]
  Weeding activity: 4
[9]; [12]
  Weeding activity: 4
[9]; [13]
  Weeding activity: 4
[10]; 2 kg./ha.
  Shoot: 26.5 cm.
  Stand: 100%
[10]; 4 kg./ha.
  Shoot: 27.0 cm.
  Stand: 65%
[10]; 6 kg./ha.
  Shoot: 0 cm.
  Stand: 0%
[10]; 8 kg./ha.
  Shoot: 0 cm.
  Stand: 0%

## CCSC(=O)N1CCCCCC1 [Molinate, ethyl-1-hexamethylene-imino-carbothiolate, reference compound]
[5]; Surface, 2 kg./ha.
  Weeding activity: 0/1
[5]; Surface, 4 kg./ha.
  Weeding activity: 2
[5]; Surface, 6 kg./ha.
  Weeding activity: 2/3
[5]; [11]
  Weeding activity: 3/2
[5]; [12]
  Weeding activity: 3/4
[5]; [13]
  Weeding activity: 4
[6]; Surface, 2 kg./ha.
  Weeding activity: 1
[6]; Surface, 4 kg./ha.
  Weeding activity: 3/2
[6]; Surface, 6 kg./ha.
  Weeding activity: 4/3
[6]; [11]
  Weeding activity: 4
[6]; [12]
  Weeding activity: 4
[6]; [13]
  Weeding activity: 4
[7]; Surface, 2 kg./ha.
  Weeding activity: 0
[7]; Surface, 4 kg./ha.
  Weeding activity: 3/4
[7]; Surface, 6 kg./ha.
  Weeding activity: 4
[7]; [11]
  Weeding activity: 4
[7]; [12]
  Weeding activity: 4
[7]; [13]
  Weeding activity: 4
[8]; Surface, 2 kg./ha.
  Weeding activity: 2
[8]; Surface, 4 kg./ha.
  Weeding activity: 4
[8]; Surface, 6 kg./ha.
  Weeding activity: 4
[8]; [11]
  Weeding activity: 4
[8]; [12]
  Weeding activity: 4
[8]; [13]
  Weeding activity: 4
[9]; Surface, 2 kg./ha.
  Weeding activity: 1/2
[9]; Surface, 4 kg./ha.
  Weeding activity: 2
[9]; Surface, 6 kg./ha.
  Weeding activity: 3
[9]; [11]
  Weeding activity: 3
[9]; [12]
  Weeding activity: 4/3
[9]; [13]
  Weeding activity: 4/3
